Reference: ChEMBL document CHEMBL1131431, “Enantiospecific semisynthesis of (+)-almuheptolide-A, a novel natural heptolide inhibitor of the mammalian mitochondrial respiratory chain” (J Med Chem, 1998)

Target: Mitochondrial complex I; NADH oxidoreductase (Bos taurus, UniProt P25708+P52505)
Assay: Compound was tested for NADH oxidase activity in bovine heart submitochondrial particles
Assay type: protein-complex assay

Chain of Mitochondrial complex I; NADH oxidoreductase (P25708 21-464 limits assumed, other chains not shown): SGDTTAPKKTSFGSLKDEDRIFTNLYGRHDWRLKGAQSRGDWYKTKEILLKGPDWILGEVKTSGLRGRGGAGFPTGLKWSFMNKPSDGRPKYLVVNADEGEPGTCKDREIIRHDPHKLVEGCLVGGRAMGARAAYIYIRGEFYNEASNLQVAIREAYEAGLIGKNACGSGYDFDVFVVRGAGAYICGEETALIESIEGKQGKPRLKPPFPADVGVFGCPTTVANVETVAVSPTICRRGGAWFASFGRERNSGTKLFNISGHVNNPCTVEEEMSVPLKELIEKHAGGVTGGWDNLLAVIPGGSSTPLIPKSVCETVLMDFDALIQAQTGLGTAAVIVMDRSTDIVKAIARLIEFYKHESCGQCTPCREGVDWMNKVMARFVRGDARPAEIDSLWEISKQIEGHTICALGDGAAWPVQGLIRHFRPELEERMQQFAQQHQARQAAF

CCO[C@H]1[C@@H](OC(C)=O)[C@H](OC(C)=O)[C@@H](c2ccccc2)OC(=O)C[C@H]1OCC
IC50: 3.9 µM

CCO[C@H]1[C@@H](O)[C@H](O)[C@@H](c2ccccc2)OC(=O)C[C@H]1OCC
IC50: 4.4 µM
